Source: patent US9650395B2, “Antibacterial compounds and methods for use” (PTC Therapeutics, Inc., priority 2011, dated 2017)
Values after ≈ are worked out from the molar mass of the structure shown. Where two headings read alike, the source gives them in different places.

Columns and labels:
[1] = tested on: Moraxella catarrhalis (M. catarrhalis) 25238; experiment: Antibacterial activity, MIC, M. catarrhalis 25238; format: cell-based; details: Moraxella catarrhalis, M. catarrhalis 25238; read-out: MIC 25238
[2] = tested on: Pseudomonas aeruginosa (P. aeruginosa) 27853; experiment: Antibacterial activity, MIC, P. aeruginosa 27853; format: cell-based; details: Pseudomonas aeruginosa, P. aeruginosa 27853; read-out: MIC 27853
Excerpt: (§1) The antibacterial activity from a microbroth dilution method may be presented as the minimum inhibitory concentration (MIC in […]). The MIC value is the lowest concentration of a drug which prevents macroscopically visible bacterial growth under test conditions.
Antibacterial activity of test compounds against the Gram-negative bacterium Pseudomonas aeruginosa (P. aeruginosa) 27853 is shown in Table 5.

[3] = tested on: E. coli ELZ4000 (MDR clinical isolate); experiment: Antibacterial activity, MIC, MDR E. coli ELZ4000; format: cell-based, Escherichia coli; details: Escherichia coli; E. coli ELZ4000, MDR clinical isolate; read-out: MIC ELZ4000
[4] = tested on: super sensitive Gram-negative Escherichia coli (E. coli) BAS849; experiment: Antibacterial activity, microbroth dilution MIC, E. coli BAS849; format: cell-based; details: Escherichia coli, read-out: MIC, BAS849
[5] = tested on: Neisseria meningitidis (N. meningitidis) 13090; experiment: Antibacterial activity, MIC, N. meningitidis 13090; format: cell-based; details: Neisseria meningitidis; N. meningitidis 13090; read-out: MIC 13090
[6] = tested on: control Gram-negative E. coli 25922 strain; experiment: Antibacterial activity, microbroth dilution MIC, E. coli 25922; format: cell-based, Escherichia coli; details: Escherichia coli; E. coli 25922, microbroth dilution; read-out: MIC, 25922
[7] = tested on: Gram-positive Staphylococcus aureus (S. aureus) 29213; experiment: Antibacterial activity, microbroth dilution MIC, S. aureus 29213; format: cell-based; details: Staphylococcus aureus; S. aureus 29213, microbroth dilution; read-out: MIC, 29213
[8] = tested on: Haemophilus influenzae (H. influenzae) 49247; experiment: Antibacterial activity, MIC, H. influenzae 49247; format: cell-based; details: Haemophilus influenzae; H. influenzae 49247; read-out: MIC 49247
Excerpt: as §1
Antibacterial activity of test compounds against the Gram-negative bacteria Haemophilus influenzae (H. influenzae) 49247, Moraxella catarrhalis (M. catarrhalis) 25238 and Neisseria meningitidis (N. meningitidis) 13090 is shown in Table 6.

[9] = tested on: E. coli ELZ4251 (MDR clinical isolate); experiment: Antibacterial activity, MIC, MDR E. coli ELZ4251; format: cell-based, Escherichia coli; details: Escherichia coli, E. coli ELZ4251, MDR clinical isolate; read-out: MIC ELZ4251
[10] = tested on: quinolone resistant E. coli LZ3111; experiment: Antibacterial activity, MIC, quinolone resistant E. coli LZ3111; format: cell-based, Escherichia coli; details: Escherichia coli, read-out: MIC, LZ3111
Excerpt: as §1
Mutations in these regions are known to confer a high level resistance to the quinolone class of antibiotics.

[11] = E. coli BAS849, microbroth dilution

Compound	MIC [1]	MIC [2]	MIC [3]	MIC [4, 11]	MIC [5]	MIC [6]	MIC [7]	MIC [8]	MIC [9]	MIC [10]	MIC [4]
CCCc1cc(C(=O)O)c(=O)[nH]c1-c1ccc(N(C)C)cc1 [Cpd 8, 6-[4-(dimethylamino)phenyl]-2-oxo-5-propyl-1,2-dihydropyridine-3-carboxylic acid]	< 1 µg/mL	12.5 to 150 µg/mL (≈ 41.6 to 499 µM)	12.5 to 150 µg/mL (≈ 41.6 to 499 µM)	< 1 µg/mL	< 1 µg/mL	3.5 to 12.5 µg/mL (≈ 11.7 to 41.6 µM)	12.5 to 150 µg/mL (≈ 41.6 to 499 µM)	< 1 µg/mL	12.5 to 150 µg/mL (≈ 41.6 to 499 µM)	12.5 to 150 µg/mL (≈ 41.6 to 499 µM)	
CN(C)c1ccc(-c2[nH]c(=O)c(C(=O)O)cc2C2CC2)cc1 [Cpd 12, 5-cyclopropyl-6-[4-(dimethylamino)phenyl]-2-oxo-1,2-dihydropyridine-3-carboxylic acid]	< 1 µg/mL	12.5 to 150 µg/mL (≈ 41.9 to 503 µM)	12.5 to 150 µg/mL (≈ 41.9 to 503 µM)	< 1 µg/mL	< 1 µg/mL	3.5 to 12.5 µg/mL (≈ 11.7 to 41.9 µM)	12.5 to 150 µg/mL (≈ 41.9 to 503 µM)	< 1 µg/mL	12.5 to 150 µg/mL (≈ 41.9 to 503 µM)	12.5 to 150 µg/mL (≈ 41.9 to 503 µM)	
CCc1cc(C(=O)O)c(=O)[nH]c1-c1ccc(N(C)CCO)cc1 [Cpd 17, 5-ethyl-6-{4-[(2-hydroxyethyl)(methyl)amino]phenyl}-2-oxo-1,2-dihydropyridine-3-carboxylic acid]	< 1 µg/mL		12.5 to 150 µg/mL (≈ 39.5 to 474 µM)	< 1 µg/mL	< 1 µg/mL	3.5 to 12.5 µg/mL (≈ 11.1 to 39.5 µM)	12.5 to 150 µg/mL (≈ 39.5 to 474 µM)	< 1 µg/mL	12.5 to 150 µg/mL (≈ 39.5 to 474 µM)	12.5 to 150 µg/mL (≈ 39.5 to 474 µM)	
CCc1c(-c2ccc(N3CCC3)cc2)[nH]c(=O)c(C(=O)O)c1O [Cpd 83, 6-[4-(azetidin-1-yl)phenyl]-5-ethyl-4-hydroxy-2-oxo-1,2-dihydropyridine-3-carboxylic acid]	< 1 µg/mL	12.5 to 150 µg/mL (≈ 39.8 to 477 µM)	12.5 to 150 µg/mL (≈ 39.8 to 477 µM)	< 1 µg/mL	< 1 µg/mL	3.5 to 12.5 µg/mL (≈ 11.1 to 39.8 µM)	3.5 to 12.5 µg/mL (≈ 11.1 to 39.8 µM)	< 1 µg/mL	12.5 to 150 µg/mL (≈ 39.8 to 477 µM)	12.5 to 150 µg/mL (≈ 39.8 to 477 µM)	
CC(C)c1c(-c2ccc(N(C)C)cc2)[nH]c(=O)c(C(=O)O)c1O [Cpd 96, 6-[4-(dimethylamino)phenyl]-4-hydroxy-2-oxo-5-(propan-2-yl)-1,2-dihydropyridine-3-carboxylic acid]	< 1 µg/mL	12.5 to 150 µg/mL (≈ 39.5 to 474 µM)	12.5 to 150 µg/mL (≈ 39.5 to 474 µM)	< 1 µg/mL	< 1 µg/mL	3.5 to 12.5 µg/mL (≈ 11.1 to 39.5 µM)	3.5 to 12.5 µg/mL (≈ 11.1 to 39.5 µM)	< 1 µg/mL	12.5 to 150 µg/mL (≈ 39.5 to 474 µM)	12.5 to 150 µg/mL (≈ 39.5 to 474 µM)	
CCc1c(-c2ccc(N3CCNCC3)cc2)[nH]c(=O)c(C(=O)O)c1O.O=C(O)C(F)(F)F [Cpd 105, 5-ethyl-4-hydroxy-2-oxo-6-[4-(piperazin-1-yl)phenyl]-1,2-dihydropyridine-3-carboxylic acid trifluoroacetate]	3.5 to 12.5 µg/mL		12.5 to 150 µg/mL		1 to 3.5 µg/mL	3.5 to 12.5 µg/mL	12.5 to 150 µg/mL	3.5 to 12.5 µg/mL	12.5 to 150 µg/mL	12.5 to 150 µg/mL	1 to 3.5 µg/mL
CCc1c(-c2ccc(-n3ccnc3)cc2)[nH]c(=O)c(C(=O)O)c1O [Cpd 107, 5-ethyl-4-hydroxy-6-[4-(1H-imidazol-1-yl)phenyl]-2-oxo-1,2-dihydropyridine-3-carboxylic acid]	< 1 µg/mL	12.5 to 150 µg/mL (≈ 38.4 to 461 µM)	12.5 to 150 µg/mL (≈ 38.4 to 461 µM)	1 to 3.5 µg/mL (≈ 3.07 to 10.8 µM)	< 1 µg/mL	12.5 to 150 µg/mL (≈ 38.4 to 461 µM)	12.5 to 150 µg/mL (≈ 38.4 to 461 µM)	< 1 µg/mL	12.5 to 150 µg/mL (≈ 38.4 to 461 µM)	12.5 to 150 µg/mL (≈ 38.4 to 461 µM)	
CCc1cc(C(=O)O)c(=O)[nH]c1-c1ccc(N2CCCCC2)cc1 [Cpd 108, 5-ethyl-2-oxo-6-[4-(piperidin-1-yl)phenyl]-1,2-dihydropyridine-3-carboxylic acid]	< 1 µg/mL	12.5 to 150 µg/mL (≈ 38.3 to 460 µM)	12.5 to 150 µg/mL (≈ 38.3 to 460 µM)	< 1 µg/mL	< 1 µg/mL	12.5 to 150 µg/mL (≈ 38.3 to 460 µM)	12.5 to 150 µg/mL (≈ 38.3 to 460 µM)	< 1 µg/mL	12.5 to 150 µg/mL (≈ 38.3 to 460 µM)	12.5 to 150 µg/mL (≈ 38.3 to 460 µM)	
CCc1cc(C(=O)O)c(=O)[nH]c1-c1ccc(N2CCOCC2)cc1 [Cpd 110, 5-ethyl-6-[4-(morpholin-4-yl)phenyl]-2-oxo-1,2-dihydropyridine-3-carboxylic acid]	< 1 µg/mL	12.5 to 150 µg/mL (≈ 38.1 to 457 µM)	12.5 to 150 µg/mL (≈ 38.1 to 457 µM)	< 1 µg/mL	< 1 µg/mL	3.5 to 12.5 µg/mL (≈ 10.7 to 38.1 µM)	12.5 to 150 µg/mL (≈ 38.1 to 457 µM)	< 1 µg/mL	12.5 to 150 µg/mL (≈ 38.1 to 457 µM)	12.5 to 150 µg/mL (≈ 38.1 to 457 µM)	
